Source: PubChem BioAssay AID200 (DTP/NCI, 2004)
Several values for one entry are separate records, joined by “and”; a condition that tells them apart may be missing. Equal entries are not always repeated. Toxic doses and inconclusive results are not listed.

Tested on: B6C3F1 mice, B16 melanoma ip, median survival T/C
Assay: NCI In Vivo Anticancer Drug Screen. Data for tumor model B16 Melanoma (intraperitoneal) in B6C3F1 mice
Settings: endpoint: median survival time, higher = longer survival
Method: The antitumor activity of compounds was measured in mice bearing transplantable tumors. Survival or tumor size were measured and the results are expressed as the measurement made in the treated group (T) divided by the measurement made in the vehicle treated control group (C). The tumor model used in this assay is B16 Melanoma (intraperitoneal) in B6C3F1 mice

[1] = dose: 6.25 mg/kg/injection, schedule: Q01DX009 (ip), vehicle: saline with Tween-80
[2] = dose: 12.5 mg/kg/injection, schedule: Q01DX009 (ip), vehicle: saline with Tween-80
[3] = dose: 25.0 mg/kg/injection, schedule: Q01DX009 (ip), vehicle: saline with Tween-80
[4] = dose: 50.0 mg/kg/injection, schedule: Q01DX009 (ip), vehicle: saline with Tween-80

For CC[C@@H](C)[C@@H]1NC(=O)C(NC(=O)C(CC(C)C)N(C)C(=O)C2CCCN2C(=O)C(C)O)C(C)OC(=O)C(Cc2ccc(OC)cc2)N(C)C(=O)C2CCCN2C(=O)C(CC(C)C)NC(=O)C(C)C(=O)C(C(C)C)OC(=O)C[C@H]1O (some centres not stated), the T/C (dose: 5.0 micrograms/kg/injection, schedule: Q01DX009 (ip), vehicle: distilled water + alcohol) was 102 % of control, the T/C (dose: 10.0 micrograms/kg/injection, schedule: Q01DX009 (ip), vehicle: distilled water + alcohol) was 111 % of control and 112 % of control and the T/C (dose: 10.0 micrograms/kg/injection, schedule: Q01DX009 (ip), vehicle: other) was 120 % of control. The T/C (dose: 20.0 micrograms/kg/injection, schedule: Q01DX005 (ip), vehicle: other) was 120 % of control, the T/C (dose: 20.0 micrograms/kg/injection, schedule: Q01DX005 (iv), vehicle: other) was 105 % of control and the T/C (dose: 20.0 micrograms/kg/injection, schedule: Q01DX005 (sc), vehicle: other) was 111 % of control. For the same compound, the T/C (dose: 20.0 micrograms/kg/injection, schedule: Q01DX009 (ip), vehicle: distilled water + alcohol) was 117 % of control and 123 % of control, the T/C (dose: 40.0 micrograms/kg/injection, schedule: Q01DX005 (iv), vehicle: other) was 101 % of control and 104 % of control and the T/C (dose: 40.0 micrograms/kg/injection, schedule: Q01DX005 (sc), vehicle: other) was 108 % of control. For the same compound, the T/C (dose: 40.0 micrograms/kg/injection, schedule: Q01DX009 (ip), vehicle: distilled water + alcohol) was 124 % of control, the T/C (dose: 40.0 micrograms/kg/injection, schedule: Q01DX009 (ip), vehicle: other) was 153 % of control and the T/C (dose: 40.0 micrograms/kg/injection, schedule: Q03HX008 (ip), vehicle: saline) was 124 % of control. For the same compound, the T/C (dose: 71.0 micrograms/kg/injection, schedule: Q01DX009 (ip), vehicle: other) was 151 % of control, the T/C (dose: 80.0 micrograms/kg/injection, schedule: Q01DX005 (ip), vehicle: other) was 122 % of control and the T/C (dose: 80.0 micrograms/kg/injection, schedule: Q01DX005 (iv), vehicle: other) was 112 % of control and 96 % of control. For the same compound, the T/C (dose: 80.0 micrograms/kg/injection, schedule: Q01DX005 (oral), vehicle: other) was 100 % of control, the T/C (dose: 80.0 micrograms/kg/injection, schedule: Q01DX005 (sc), vehicle: other) was 113 % of control and 103 % of control and the T/C (dose: 80.0 micrograms/kg/injection, schedule: Q01DX009 (ip), vehicle: distilled water + alcohol) was 153 % of control. The T/C (dose: 80.0 micrograms/kg/injection, schedule: Q01DX009 (ip), vehicle: other) was 163 % of control, the T/C (dose: 106.0 micrograms/kg/injection, schedule: Q01DX009 (ip), vehicle: other) was 159 % of control and the T/C (dose: 160.0 micrograms/kg/injection, schedule: Q01DX001 (iv), vehicle: other) was 102 % of control. For the same compound, the T/C (dose: 160.0 micrograms/kg/injection, schedule: Q01DX001 (sc), vehicle: other) was 106 % of control, the T/C (dose: 160.0 micrograms/kg/injection, schedule: Q01DX005 (iv), vehicle: other) was 104 % of control and 106 % of control and the T/C (dose: 160.0 micrograms/kg/injection, schedule: Q01DX005 (oral), vehicle: other) was 119 % of control and 105 % of control. For the same compound, the T/C (dose: 160.0 micrograms/kg/injection, schedule: Q01DX005 (sc), vehicle: other) was 110 % of control and 122 % of control, the T/C (dose: 160.0 micrograms/kg/injection, schedule: Q01DX009 (ip), vehicle: distilled water + alcohol) was 162 % of control and 164 % of control and the T/C (dose: 160.0 micrograms/kg/injection, schedule: Q01DX009 (ip), vehicle: other) was 163 % of control. For the same compound, the T/C (dose: 160.0 micrograms/kg/injection, schedule: Q01DX009 (ip), vehicle: saline) was 151 % of control, the T/C (dose: 320.0 micrograms/kg/injection, schedule: Q01DX001 (iv), vehicle: other) was 99 % of control and 106 % of control and the T/C (dose: 320.0 micrograms/kg/injection, schedule: Q01DX001 (oral), vehicle: other) was 99 % of control. The T/C (dose: 320.0 micrograms/kg/injection, schedule: Q01DX001 (sc), vehicle: other) was 102 % of control, the T/C (dose: 320.0 micrograms/kg/injection, schedule: Q01DX005 (ip), vehicle: other) was 123 % of control and the T/C (dose: 320.0 micrograms/kg/injection, schedule: Q01DX005 (iv), vehicle: other) was 104 % of control and 106 % of control. For the same compound, the T/C (dose: 320.0 micrograms/kg/injection, schedule: Q01DX005 (oral), vehicle: other) was 104 % of control and 105 % of control, the T/C (dose: 320.0 micrograms/kg/injection, schedule: Q01DX005 (sc), vehicle: other) was 94 % of control and 105 % of control and the T/C (dose: 640.0 micrograms/kg/injection, schedule: Q01DX001 (ip), vehicle: other) was 116 % of control. For the same compound, the T/C (dose: 640.0 micrograms/kg/injection, schedule: Q01DX001 (iv), vehicle: other) was 102 % of control and 108 % of control, the T/C (dose: 640.0 micrograms/kg/injection, schedule: Q01DX001 (oral), vehicle: other) was 99 % of control and the T/C (dose: 640.0 micrograms/kg/injection, schedule: Q01DX001 (sc), vehicle: other) was 117 % of control and 102 % of control. For the same compound, the T/C (dose: 640.0 micrograms/kg/injection, schedule: Q01DX005 (oral), vehicle: other) was 100 % of control and 107 % of control, the T/C (dose: 1280.0 micrograms/kg/injection, schedule: Q01DX001 (ip), vehicle: other) was 124 % of control and the T/C (dose: 1280.0 micrograms/kg/injection, schedule: Q01DX001 (ip), vehicle: saline) was 117 % of control. For the same compound, the T/C (dose: 1280.0 micrograms/kg/injection, schedule: Q01DX001 (iv), vehicle: other) was 118 % of control and 106 % of control, the T/C (dose: 1280.0 micrograms/kg/injection, schedule: Q01DX001 (oral), vehicle: other) was 103 % of control and 108 % of control and the T/C (dose: 1280.0 micrograms/kg/injection, schedule: Q01DX001 (sc), vehicle: other) was 118 % of control and 100 % of control. For the same compound, the T/C (dose: 1280.0 micrograms/kg/injection, schedule: Q01DX005 (oral), vehicle: other) was 97 % of control and 102 % of control, the T/C (dose: 2560.0 micrograms/kg/injection, schedule: Q01DX001 (oral), vehicle: other) was 114 % of control and 100 % of control and the T/C (dose: 2560.0 micrograms/kg/injection, schedule: Q01DX001 (sc), vehicle: other) was 112 % of control. The T/C (dose: 2560.0 micrograms/kg/injection, schedule: Q01DX005 (oral), vehicle: other) was 99 % of control and 100 % of control, the T/C (dose: 5120.0 micrograms/kg/injection, schedule: Q01DX001 (oral), vehicle: other) was 101 % of control and 105 % of control and the T/C (dose: 10240.0 micrograms/kg/injection, schedule: Q01DX001 (oral), vehicle: other) was 105 % of control.

In the case of ClC1=C(Cl)C(Cl)=C(Cl)C1=Cc1ccccc1, the T/C (dose: 3.12 mg/kg/injection, schedule: Q01DX009 (ip), vehicle: saline with Tween-80) is reported as 112 % of control, the T/C [1] is reported as 98 % of control and the T/C [2] is reported as 106 % of control. For the same compound, the T/C [3] was 101 % of control.

In the case of CC(=O)OCC1(C)NC(=O)c2ccccc2O1 (configuration not stated), the T/C [2] is reported as 88 % of control and 103 % of control, the T/C [3] is reported as 114 % of control and 103 % of control and the T/C [4] is reported as 95 % of control and 100 % of control. The T/C (dose: 100.0 mg/kg/injection, schedule: Q01DX009 (ip), vehicle: saline with Tween-80) was 92 % of control and 93 % of control, the T/C (dose: 200.0 mg/kg/injection, schedule: Q01DX009 (ip), vehicle: saline with Tween-80) was 90 % of control and the T/C (dose: 400.0 mg/kg/injection, schedule: Q01DX009 (ip), vehicle: saline with Tween-80) was 86 % of control.

In the case of CC#CCOCC(O)CCl (configuration not stated), the T/C (dose: 25.0 mg/kg/injection, schedule: Q01DX009 (ip), vehicle: suspension in saline) is reported as 96 % of control, the T/C (dose: 50.0 mg/kg/injection, schedule: Q01DX009 (ip), vehicle: suspension in saline) is reported as 105 % of control and the T/C (dose: 100.0 mg/kg/injection, schedule: Q01DX009 (ip), vehicle: suspension in saline) is reported as 106 % of control. The T/C (dose: 200.0 mg/kg/injection, schedule: Q01DX009 (ip), vehicle: suspension in saline) was 102 % of control.

CN(C)N=Nc1ccc(C(N)=O)cc1 was tested, and the T/C (dose: 4.5 mg/kg/injection, schedule: Q01DX009 (ip), vehicle: saline with Tween-80) was 110 % of control, the T/C (dose: 7.5 mg/kg/injection, schedule: Q01DX009 (ip), vehicle: saline with Tween-80) was 114 % of control and the T/C (dose: 8.0 mg/kg/injection, schedule: Q01DX009 (ip), vehicle: saline with Tween-80) was 107 % of control. For the same compound, the T/C [2] was 119 % of control and 120 % of control, the T/C (dose: 13.0 mg/kg/injection, schedule: Q01DX009 (ip), vehicle: saline with Tween-80) was 101 % of control and the T/C (dose: 20.83 mg/kg/injection, schedule: Q01DX009 (ip), vehicle: saline with Tween-80) was 114 % of control and 288 % of control. For the same compound, the T/C (dose: 21.0 mg/kg/injection, schedule: Q01DX009 (ip), vehicle: saline with Tween-80) was 118 % of control, the T/C (dose: 34.72 mg/kg/injection, schedule: Q01DX009 (ip), vehicle: saline with Tween-80) was 110 % of control and 115 % of control and the T/C (dose: 35.0 mg/kg/injection, schedule: Q01DX009 (ip), vehicle: saline with Tween-80) was 111 % of control. The T/C (dose: 57.86 mg/kg/injection, schedule: Q01DX009 (ip), vehicle: saline with Tween-80) was 124 % of control, the T/C (dose: 58.0 mg/kg/injection, schedule: Q01DX009 (ip), vehicle: saline with Tween-80) was 118 % of control and the T/C (dose: 96.0 mg/kg/injection, schedule: Q01DX009 (ip), vehicle: saline with Tween-80) was 117 % of control.

For Nc1nc(-c2cccc([N+](=O)[O-])c2)c(Br)c(=O)[nH]1, the T/C [3] was 115 % of control and the T/C [4] was 122 % of control.

For Cc1cc(N=NC(N)=S)c2ccccc2c1O, the T/C (dose: 3.13 mg/kg/injection, schedule: Q01DX009 (ip), vehicle: saline with Tween-80) was 94 % of control, the T/C [1] was 86 % of control and the T/C [2] was 87 % of control.
